Assay [1] addresses T1, Prostaglandin D2 receptor 2 (Homo sapiens, UniProt Q9Y5Y4).
T1 sequence (Q9Y5Y4 whole entry): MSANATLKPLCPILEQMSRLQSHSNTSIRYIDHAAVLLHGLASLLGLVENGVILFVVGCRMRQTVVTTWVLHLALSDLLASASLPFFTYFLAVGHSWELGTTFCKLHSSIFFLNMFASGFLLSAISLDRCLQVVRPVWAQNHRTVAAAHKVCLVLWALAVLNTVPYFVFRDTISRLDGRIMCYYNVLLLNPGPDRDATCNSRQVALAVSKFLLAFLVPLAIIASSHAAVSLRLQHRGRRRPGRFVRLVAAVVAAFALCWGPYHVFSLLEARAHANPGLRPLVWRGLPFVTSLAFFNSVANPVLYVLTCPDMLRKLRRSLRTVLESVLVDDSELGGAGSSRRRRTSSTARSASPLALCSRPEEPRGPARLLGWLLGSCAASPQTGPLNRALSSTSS
In words: Displacement of [3H]PGD2 from human CRTH2 receptor expressed in HEK293 cells. It is filed as cell-based. For orientation: Loss of bound radioactivity is the signal in a displacement assay; it reports binding, not function.

The target of assay [2] is T1, Prostaglandin D2 receptor 2. In words: Antagonist activity against CRTH2 receptor measured as inhibition of PGD2-induced beta-arrestin translocation in HEK293 cells by BRET assay. The assay is classed as functional, cell-based.
The next assay relates to Mus musculus. Briefly: Inhibition of peribronchial eosinophilia in BALB/c mouse at 100 mg/kg, po relative to control. It is filed as functional.

The values below come from ChEMBL document CHEMBL1137324, “Novel selective orally active CRTH2 antagonists for allergic inflammation developed from in silico derived hits” (J Med Chem, 2006).

With `O=C(O)COc1ccc(Br)cc1C(=O)c1cnn(-c2ccccc2Br)c1`, the values for the concentration for half-maximal inhibition (IC50) in assay [1] and in assay [2] were 1.9 nM and 12 nM, respectively.
With `O=C(O)COc1ccc(-c2ccccc2)cc1C(=O)c1cnn(-c2ccccc2)c1`, the half-maximal inhibitory concentration (IC50) in assay [1] turned out to be 42 nM; in assay [2] it was 485 nM.
Consider `COc1ccc(-n2cc(C(=O)c3cc(Br)ccc3OCC(=O)O)cn2)cc1`, for which the figures for the IC50 in assay [1] and in assay [2] were 3.6 nM and 53 nM, respectively.
`O=C(O)COc1ccc(Br)cc1/C=N/Nc1cccc2cccnc12`: the IC50 was 54 nM in assay [1] and 643 nM in assay [2].
Consider `O=C(O)COc1ccc(Br)cc1CO`, for which the IC50 came to 886 nM in assay [1] and 6870 nM in assay [2].
The corresponding values for `O=C(O)COc1ccccc1C(=O)c1cnn(-c2ccccc2)c1` are 510 nM and 5350 nM.
`Cc1cc(C(=O)N/N=C/c2ccccc2OCC(=O)O)[nH]n1`: the IC50 is 11200 nM in assay [1] and over 100000 nM in assay [2].
For `O=C(O)COc1ccc(Br)cc1C(=O)c1cnn(-c2ccc(Br)cc2)c1`, the IC50 worked out at 1.4 nM in assay [1] and 13 nM in assay [2].
In the case of `Cc1ccc(OCC(=O)O)c(C(=O)c2cnn(-c3ccccc3)c2)c1`, the IC50 was found to be 48 nM in assay [1] and 587 nM in assay [2].
Regarding `O=C(O)COc1ccc([N+](=O)[O-])cc1C(=O)c1cnn(-c2ccccc2)c1`, the figures for the IC50 in assay [1] and in assay [2] were 47 nM and 236 nM, respectively.
On to `O=C(O)COc1ccc(Br)cc1/C=N/Nc1ccccn1`, for which the values for the half-inhibitory concentration (IC50) in assay [1] and in assay [2] were 255 nM and 3490 nM, respectively.
The corresponding values for `O=C(O)COc1ccccc1/C=N/NC(=O)COc1ccc(Cl)cc1Cl` are 555 nM and 6320 nM.
In the case of `CC(C)(C)c1cc(Br)ccc1OCC(=O)O`, the IC50 worked out at 61 nM in assay [1] and 423 nM in assay [2].
For the compound `O=Cc1ccccc1OCC(=O)O`, the IC50 in assay [1] was 1970 nM; in assay [2], 50000 nM.
Take `O=C(O)COc1ccc(Br)cc1/C=N/Nc1nncc(-c2ccccc2)n1`: the IC50 in assay [1] was 89 nM; in assay [2], 3210 nM.
Regarding `Cc1ccc(NCC(=O)N/N=C/c2ccccc2OCC(=O)O)cc1`, the IC50 in assay [1] was determined as 3660 nM; in assay [2], 60200 nM.
With `O=C(O)COc1ccc(F)cc1C(=O)c1cnn(-c2ccccc2)c1`, the IC50 in assay [1] was 108 nM; in assay [2], 1320 nM.
Consider `O=C(O)COc1ccc(Br)cc1C(=O)c1ccccc1`, for which the IC50 in assay [1] was determined as 53 nM; in assay [2], 437 nM.
As to `O=C(O)COc1ccc(Br)cc1C(=O)c1ccno1`, the IC50 stood at 391 nM in assay [1] and 2650 nM in assay [2].
As for `O=C(O)COc1ccc(-c2cc(F)cc(F)c2)cc1C(=O)c1cnn(-c2ccccc2)c1`, the IC50 in assay [1] was determined as 13 nM; in assay [2] it was 147 nM.
In the case of `COc1ccc(OCC(=O)O)c(C(=O)c2cnn(-c3ccccc3)c2)c1`, the half-inhibitory concentration (IC50) worked out at 151 nM in assay [1] and 4200 nM in assay [2].
Take `O=C(O)COc1ccc(Br)cc1C(=O)c1cnn(-c2cccc(Br)c2)c1`: the IC50 was 3.4 nM in assay [1] and 31 nM in assay [2].
As to `CCOC(=O)COc1ccc(Br)cc1C(=O)c1cnn(-c2ccccc2)c1`, the figures for the IC50 in assay [1] and in assay [2] were 165 nM and 3000 nM, respectively.
`C[C@]12CCC(=O)C=C1CC[C@@H]1[C@@H]2[C@@H](O)C[C@@]2(C)[C@H]1CC[C@]2(O)C(=O)CO` [HYDROCORTISONE] displayed an inhibition in vivo at 100 mg/kg in the assay on Mus musculus of 94%.
Turning to `O=C(O)COc1ccc(Cl)cc1C(=O)c1cnn(-c2ccccc2)c1`, the half-maximal inhibitory concentration (IC50) in assay [1] came to 15 nM; in assay [2] it was 185 nM.
The corresponding values for `CC(=O)c1cc(Br)ccc1OCC(=O)O` are 510 nM and 4520 nM.
As for `O=Cc1cc(Br)ccc1OCC(=O)O`, the IC50 is 124 nM in assay [1] and 481 nM in assay [2].
As to `O=C(O)COc1ccc(Br)cc1C(=O)c1cnn(-c2ccc(Cl)cc2)c1`, the 50% inhibitory concentration (IC50) in assay [1] was determined as 1.5 nM; in assay [2] it was 17 nM.
As to `O=C(O)COc1ccccc1/C=N/NC(=O)Cn1cnc2ccccc21`, the IC50 in assay [1] was determined as 12800 nM; in assay [2], 81700 nM.
Regarding `COc1ccc(-c2cnnc(N/N=C/c3ccccc3OCC(=O)O)n2)cc1`, the values for the half-inhibitory concentration (IC50) in assay [1] and in assay [2] were 1580 nM and over 100000 nM, respectively.
In the case of `O=C(O)COc1ccc(-c2ccc(Cl)cc2)cc1C(=O)c1cnn(-c2ccccc2)c1`, the concentration for half-maximal inhibition (IC50) in assay [1] is 37 nM; in assay [2] it was 448 nM.

Broadly, the IC50 is the concentration that gives 50% inhibition. A low value points to greater potency. One may read the inhibition in vivo as the share of the control response that was lost under treatment.
